Literature values as cited in patent publication US20100104646A1, “NANOPARTICLE COMPOSITION FOR PREVENTION OF HAIR LOSS AND PROMOTION OF HAIR GROWTH” (priority 2006, published 2010).

Test system: hair loss
Settings: clinical studies

Compound: CC(C)(C)NC(=O)[C@H]1CC[C@H]2[C@@H]3CC[C@H]4NC(=O)C=C[C@]4(C)[C@H]3CC[C@]12C [Propecia]
- participants taking the drug in whom hair loss was prevented: 68%
- participants who enjoyed hair regrowth (participants taking the drug): 66%
